Laboratory results: article PMC7395850 (Biochemical and biophysical research communications, 2019)

Experiments:
Type in all cases: biochemical
N-phos in human sEH = molecular target: T1, N-phos in human sEH (Homo sapiens, UniProt P34913); assay: N-phos activity assay with AttoPhos substrate, human sEH; conditions: for species preference of N-phos inhibition (human versus mouse), in words: human at 30 μM versus mouse at 6 μM (Figure 1B); for inhibition of human N-phos: inhibitor at 30 μM; for selectivity index (N-phos over C-EH) in human sEH: IC50 C-EH / IC50 N-phos; for Ki: read-out: KI for human N-phos, competitive with respect to AttoPhos; for inhibition mechanism, human N-phos: with respect to the substrate AttoPhos; for inhibition of human N-phos, in words: screening, 30 μM
T1 sequence (P34913 1-555): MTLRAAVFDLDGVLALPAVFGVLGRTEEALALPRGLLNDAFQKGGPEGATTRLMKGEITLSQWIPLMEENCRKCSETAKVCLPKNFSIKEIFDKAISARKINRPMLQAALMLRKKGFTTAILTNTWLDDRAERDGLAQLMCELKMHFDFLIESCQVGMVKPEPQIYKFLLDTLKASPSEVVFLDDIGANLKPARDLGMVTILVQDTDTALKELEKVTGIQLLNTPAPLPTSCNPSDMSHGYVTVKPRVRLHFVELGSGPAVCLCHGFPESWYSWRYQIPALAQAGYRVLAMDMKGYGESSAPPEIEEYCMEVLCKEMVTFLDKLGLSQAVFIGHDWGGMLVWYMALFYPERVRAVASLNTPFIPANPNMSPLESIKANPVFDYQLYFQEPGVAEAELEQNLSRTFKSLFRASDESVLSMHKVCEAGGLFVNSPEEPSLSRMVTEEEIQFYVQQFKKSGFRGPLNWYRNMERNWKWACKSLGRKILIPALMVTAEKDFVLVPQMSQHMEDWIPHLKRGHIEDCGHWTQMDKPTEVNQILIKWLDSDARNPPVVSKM

C-EH in human sEH = molecular target: T2, C-EH in human sEH (Homo sapiens, UniProt P34913); assay: C-EH activity assay with PHOME substrate, human sEH; conditions: for time-dependent change in C-EH inhibition, human sEH: preincubation 1.7, 10, 30 and 120 min; for IC50: read-out: IC50 for C-EH in human sEH, human sEH, PHOME substrate
T2 sequence (P34913 1-555): T1 sequence (P34913 1-555)

N-phos in mouse sEH = molecular target: T3, N-phos in mouse sEH (Mus musculus, UniProt P34914); assay: N-phos activity assay with AttoPhos substrate, mouse sEH; conditions: for Ki: read-out: KI for mouse N-phos, competitive with respect to AttoPhos; for inhibition mechanism, mouse N-phos: with respect to the substrate AttoPhos; for inhibition of mouse N-phos: inhibitor at 6 μM; for inhibition of mouse N-phos, in words: screening, 6 μM; for species preference of N-phos inhibition (mouse versus human), in words: mouse at 6 μM versus human at 30 μM (Figure 1D); for selectivity index (N-phos over C-EH) in mouse sEH: IC50 C-EH / IC50 N-phos
T3 sequence (P34914 1-554): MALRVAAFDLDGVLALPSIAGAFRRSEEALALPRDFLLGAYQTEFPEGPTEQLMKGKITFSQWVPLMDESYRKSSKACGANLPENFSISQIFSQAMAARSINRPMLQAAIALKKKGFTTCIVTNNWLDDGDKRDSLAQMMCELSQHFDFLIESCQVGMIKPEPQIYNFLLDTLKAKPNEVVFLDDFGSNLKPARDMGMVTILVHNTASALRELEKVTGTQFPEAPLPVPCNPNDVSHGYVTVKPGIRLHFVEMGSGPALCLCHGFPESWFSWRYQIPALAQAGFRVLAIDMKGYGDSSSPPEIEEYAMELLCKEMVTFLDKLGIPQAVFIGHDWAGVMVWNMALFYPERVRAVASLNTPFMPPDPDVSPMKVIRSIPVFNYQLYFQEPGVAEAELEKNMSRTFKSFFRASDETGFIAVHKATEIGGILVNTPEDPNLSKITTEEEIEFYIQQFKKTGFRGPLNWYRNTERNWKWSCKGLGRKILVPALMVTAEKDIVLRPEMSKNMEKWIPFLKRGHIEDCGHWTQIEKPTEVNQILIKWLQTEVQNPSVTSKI

C-EH in mouse sEH = molecular target: T4, C-EH in mouse sEH (Mus musculus, UniProt P34914); assay: C-EH activity assay with PHOME substrate, mouse sEH; conditions: for time-dependent change in C-EH inhibition, mouse sEH: preincubation time-window 1.7−120 min; for IC50: read-out: IC50 for C-EH in mouse sEH, mouse sEH, PHOME substrate
T4 sequence (P34914 1-554): T3 sequence (P34914 1-554)

Row | SMILES | inhibition of human N-phos (N-phos in human sEH) [%] | selectivity index (N-phos over C-EH) in human sEH (N-phos in human sEH) | IC50 (C-EH in human sEH) [µM] | Ki (N-phos in mouse sEH) [µM] | inhibition mechanism, mouse N-phos (N-phos in mouse sEH) | Ki (N-phos in human sEH) [µM] | inhibition mechanism, human N-phos (N-phos in human sEH) | inhibition of mouse N-phos (N-phos in mouse sEH) [%] | inhibition of mouse N-phos, in words (N-phos in mouse sEH) | inhibition of human N-phos, in words (N-phos in human sEH) | IC50 (C-EH in mouse sEH) [µM] | other results
1 | CC(C)(C)OC(=O)N[C@H](Cc1ccc(OC(=O)OCc2ccccc2Br)cc1)C(=O)O [Compound 30, Boc-D-Tyr(2-Br-Z)] | > 72 | – | – | – | – | – | – | – | – | – | – | species preference of N-phos inhibition (human versus mouse), in words (N-phos in human sEH): more potent on inhibiting the human N-phos than the mouse enzyme
2 | COc1ccc(C[C@@H](NC(=O)OCC2c3ccccc3-c3ccccc32)C(=O)O)cc1 [Compound 72, Fmoc-D-Tyr(Me)] | > 72 | > 31 | > 200 | – | – | – | – | – | – | – | – | time-dependent change in C-EH inhibition, human sEH (C-EH in human sEH): no time-dependent change
3 | CC(C)(C)OC(=O)N[C@@H](Cc1ccc(OCc2ccccc2)cc1)C(=O)O [Compound 23, Boc-L-Tyr(Bzl)] | > 72 | 127 | 190 | 9 | competitively | 0.89 | competitively | – | – | – | – | species preference of N-phos inhibition (human versus mouse), in words (N-phos in human sEH): more potent on inhibiting the human N-phos than the mouse enzyme; preference for human N-phos over mouse N-phos (N-phos in human sEH; ratio of KI values): 10 fold; time-dependent change in C-EH inhibition, human sEH (C-EH in human sEH): no time-dependent change
4 | CC(C)(C)OC(=O)n1cc(C[C@H](NC(=O)OCC2c3ccccc3-c3ccccc32)C(=O)O)c2ccccc21 [Compound 95, Fmoc-L-Trp(Boc)] | > 72 | – | – | – | – | – | – | > 75 | inhibitory | inhibitory | – | –
5 | O=C(N[C@@H](Cc1ccccc1Cl)C(=O)O)OCC1c2ccccc2-c2ccccc21 [Compound 73, Fmoc-L-Phe(2-Cl)] | – | – | – | – | – | – | – | > 75 | – | – | – | species preference of N-phos inhibition (mouse versus human), in words (N-phos in mouse sEH): more potent on inhibiting the mouse N-phos than the human enzyme
6 | CC(C)(C)OC(=O)n1cc(C[C@@H](NC(=O)OCC2c3ccccc3-c3ccccc32)C(=O)O)c2ccccc21 [Compound 96, Fmoc-D-Trp(Boc)] | > 72 | – | – | – | – | – | – | > 75 | inhibitory | inhibitory | – | –
7 | O=C(N[C@@H](Cc1c[nH]c2ccccc12)C(=O)O)OCC1c2ccccc2-c2ccccc21 [Compound 78, Fmoc-L-Trp] | – | – | – | – | – | – | – | > 75 | inhibitory | inhibitory | ~200 | selectivity index (N-phos over C-EH) in mouse sEH (N-phos in mouse sEH): ~ 50; time-dependent change in C-EH inhibition, mouse sEH (C-EH in mouse sEH): did not display any time-dependent change
8 | N#Cc1ccc(C[C@H](NC(=O)OCC2c3ccccc3-c3ccccc32)C(=O)O)cc1 [Compound 67, Fmoc-L-Phe(4-CN)] | – | – | – | 1.1 | competitively | 26 | competitively | > 75 | – | – | 85 | selectivity index (N-phos over C-EH) in mouse sEH (N-phos in mouse sEH): 37; species preference of N-phos inhibition (mouse versus human), in words (N-phos in mouse sEH): more potent on inhibiting the mouse N-phos than the human enzyme; preference for mouse N-phos over human N-phos (N-phos in mouse sEH; ratio of KI values): 24 fold; time-dependent change in C-EH inhibition, mouse sEH (C-EH in mouse sEH): did not display any time-dependent change
9 | CC(=O)N[C@@H](CSC/C=C(\C)CC/C=C(\C)CCC=C(C)C)C(=O)O [AFC, N-Acetyl-S-farnesyl-L-cysteine, reference compound] | – | > 29 | > 100 | 33 | competitively | 1.1 | competitively | – | – | – | 48 | –
